Measured values published in patent US20050054103A1, “Expansion of renewable stem cell populations using modulators of PI 3-kinase” (priority 2003, published 2005).

Tests used:
[1] = test system: CD34+ cells; assay: Ex-vivo expansion of CD34+ cell enriched cultures with RAR antagonist, cell counts and FACS surface antigen analysis; type: cell-based, human; settings: for No. of cells (× 10^4): 2 weeks after seeding; for No. of CD34+ cells: RAR antagonist 10^−5 M for one week only
Procedure: Human blood cells were obtained from umbilical cord blood from female patients following full-term, normal delivery (informed consent was obtained). Samples were collected and processed within 12 hours postpartum. Blood was mixed with 3% Gelatin (Sigma, St. Louis, Mo.), sedimented for 30 minutes to remove most red blood cells. […] The mononuclear cell fraction in the interface layer was collected, washed three times and resuspended in phosphate-buffered saline (PBS) solution (Biological Industries) containing 0.5% bovine serum albumin (BSA, Fraction V; Sigma).
To purify CD34^+ mononuclear cells, the fraction was subjected to two cycles of immuno-magnetic separation using the MiniMACS® or Clinimax® CD34 Progenitor Cell Isolation Kit (Miltenyi Biotec, Auburn, Calif.) as per manufacturer's recommendations.
CD34^+ expressing purified cells above were cultured in 24-well Costar Cell Culture Clusters (Coming Inc., Corning, N.Y.) or culture bags (American Fluoroseal Corp), at a concentration of 10^4 cells/ml in alpha medium (Biological Industries, Beit Haemek, Israel) supplemented with 10% fetal bovine serum (FBS, Biological Industries). The following human recombinant cytokines were added: Thrombopoietin (TPO), interleukin-6 (IL-6), FLT-3 ligand and stem cell factor (SCF), all at final concentrations of 50 ng/ml each, though occasionally IL-3, at a concentration of 20 ng/ml, was added either together or instead of SCF. For non-hematopoietic cell differentiation, FGF, EGF, NGF, VEGF, LIF or Hepatocyte growth factor (HGF) were used to supplement the growth medium, either alone or in various combinations. All cytokines used were purchased from Perpo Tech, Inc. (Rocky Hill, N.J.). The cultures were incubated at 37° C., 5% CO2, in a humidified atmosphere.
At weekly intervals, cell cultures were toped and semi-depopulated and were supplemented with fresh medium, serum and cytokines or supplemented with fresh growth medium, alone. At predetermined time points, cells were harvested, stained with trypan blue, counted, and cell morphology was determined via the use of cytospin (Shandon, UK)-prepared smears stained with May-Grunwald/Giemsa solutions.
CD34^+ purified and whole MNC cultures were prepared and maintained as described above. […] The antagonist was added for a predetermined, limited period, for up to three weeks or continuously during the entire culture period.
Cells were harvested, washed with a PBS solution containing 1% bovine sera albumin (BSA) and 0.1% sodium azide (Sigma), and stained at 4° C. for 60 minutes with fluorescein isothiocyanate or phycoerythrin-conjugated antibodies (all from Immunoquality Products, the Netherlands). The cells were then washed with the same buffer and analyzed by FACS caliber or Facstarplus flow cytometers. Cells were passed at a rate of 1000 cells/second, using saline as the sheath fluid. A 488 nm argon laser beam served as the light source for excitation. Emission of ten thousand cells was measured using logarithmic amplification, and analyzed using CellQuest software. Negative control staining of cells was accomplished with mouse IgG-PE (Dako A/S Glostrup, Denmark) and mouse IgG-FITC (BD Biosciences, Erembodegem, Belgium).
CD34 surface expression on short and long-term cultures initiated either with purified CD34^+ cells or the entire MNC fraction was determined as follows: CD34^+ cells were positively reselected (Miltenyi kit) and counted. Purity was confirmed by subsequent FACS and cell morphology analysis.
Reselected CD34^+ cell subsets were stained for the following combination of antigens: CD34PE/CD38FITC and CD34PE/38, 33, 14, 15, 3, 4, 61, 19 (Lin) FITC. The fraction positive for CD34 and negative for CD38 was defined as CD34^+CD38^−. The fraction positive for CD34 and negative for LIN was defined as CD34^+Lin^− cell fraction.
FACS analysis results are given as percentage values of cells. Absolute numbers of subsets are calculated from the absolute number of CD34^+ cells.

[2] = test system: Boston fern Callus tissue cultures; assay: Intracellular copper content of plant callus tissues incubated with TEPA; type: cell-based; settings: two days
Procedure: Plant cells: The effect of TEPA on the intracellular copper content of plant cells was determined as follows. Boston fern Callus tissue cultures were obtained from a commercial plant tissue culture production facility (Biological Industries, Kibbutz Bet Ha'Emek, Israel) and incubated with different concentrations of TEPA in the culture medium for two days at room temperature. After three washes with PBS the tissues were suspended in 0.03 M ultra pure nitric acid and homogenized with a high shear mixer (polytron, Kinematica, Switzerland) for 3 minutes to disrupt the cells and release intracellular copper. Cell samples were vortexed before transferring to a vial autosampler and analyzed in duplicate by a Perkin Elmer graphite furnace atomic absorption spectrophotometer at a wavelength of 324.7 nm. The samples were analyzed against copper standard solution prepared from a commercial stock solution that was diluted with 0.03 M ultra pure nitric acid.

[3] = test system: Mouse erythroleukemic cells (MEL); assay: HMBA-induced differentiation of erythroleukemic cells; type: cell-based; settings: day 3
Procedure: Mouse erythroleukemic cells (MEL): MEL cells are erythroblast like cells. Following treatment with several chemicals (differentiation inducers) the cells undergo erythroid differentiation and accumulate hemoglobin. […] At day 3 of the culture, the total number of cells and the percentage of hemoglobin-containing cells were determined (Table 7).
On day 3, total cell number and hemoglobin containing (benzidine positive) cells were determined.

[4] = test system: HL-60 cells; assay: Copper determination in chelator treated cells (atomic absorption); type: cell-based, human
Procedure: Copper Determination: Cells were harvested by centrifugation at 1000×g for 5 minutes. The cell pellet was washed three times by re-suspending the cells in PBS (Ca^++ and Mg^++ free) and centrifugation at 1000×g. An aliquot containing 2×10^6 cells was then transferred into a metal-free Eppendorf tube and the cells were recovered by centrifugation at 1000×g. The cell pellet was re-suspended in 0.03 M ultra-pure nitric acid to give a concentration of 1×10^7 cells/ml. The cells were homogenized with a high shear mixer (polytron, Kinematica, Switzerland) for 1 minutes to disrupt the cell and release intracellular copper content. Cell samples were vortexed before transferring to a vial autosampler and analyzed in duplicate by a Perkin Elmer graphite furnace atomic absorption spectrophotometer at a wavelength of 324.7 nm. The samples were analyzed against copper standard solution prepared from a commercial stock solution that was diluted with 0.03 M ultra pure nitric acid.
FIG. 44 provides the chemical structure of the various chelators employed in these experiments.

[5] = RAR antagonist 10^−5 M, 2 weeks
[6] = RAR antagonist 10^−6 M, 2 weeks
[7] = reselected CD34+ cells after two weeks in culture

SMILES: CCc1ccc(C2=CC(C)(C)Sc3ccc(C#Cc4ccc(C(=O)O)cc4)cc32)cc1 [AGN 194310]
- cell proliferation enabled until (post initial seeding) ([1]; AGN194310 10^−7 M): ≤ 11 weeks
- expression of the CD38 antigen ([1]; FACS, 2 weeks): completely abolished
- No. of cells (× 10^4) ([1]; RAR antagonist 10^−5 M + 4 cytokines): 42 × 10^4
- No. of CD34+ cells ([1]; week 13): 10322
- No. of CD34+ cells ([1]; week 20): 0
- % 34^+/38^−cells [1, 5]: 17.14%
- % 34^+/Lin^−cells [1, 5]: 15.18%
- % 34^+cells [1, 5]: 18.94%
- No. of cells (× 10^4) ([1]; RAR antagonist 10^−6 M + 4 cytokines): 52 × 10^4
- % 34^+/38^−cells [1, 6]: 17.16%
- % 34^+/Lin^−cells [1, 6]: 11.91%
- % 34^+cells [1, 6]: 19.59%
- increase in CD34+ expression between week three to eleven ([1]; RAR antagonist first three weeks only, then eight weeks without): 92 fold
- CD34^+Lin^− expansion ([1]; after two weeks in culture, CD34+ re-selected fraction): 530 fold
- increase in CD34^+CD38^− surface expression [1, 7]: 1000 fold
- increase in CD34^+Lin^− surface expression [1, 7]: 500 fold
- expansion of CD34+ compartment since the initiation of the cultures ([1]; week 11, RAR antagonist first three weeks only): 1621 fold
- increase in CD34^+Lin^− expression ([1]; week eleven, 9 weeks after termination of antagonist treatment): 16,700 fold

SMILES: NCCNCCNCCNCCN [TEPA, tetraethylenepentamine]
- Average Intracellular Copper Content (ppb) ([2]; TEPA 10 μM in medium): 13.85 +/− 4.09 ppb
- Average Intracellular Copper Content (ppb) ([2]; TEPA 50 μM in medium): 8.45 +/− 0.05 ppb
- Average Intracellular Copper Content (ppb) ([2]; TEPA 100 μM in medium): 7.1 +/− 2.12 ppb
- Benzidine Positive Cells (%) ([3]; HMBA + chelator 5 μM): 24%
- Cells/ml (×10^4) ([3]; HMBA + chelator 5 μM): 35 ×10^4
- Benzidine Positive Cells (%) ([3]; HMBA + chelator 10 μM): 16%
- Cells/ml (×10^4) ([3]; HMBA + chelator 10 μM): 35 ×10^4
- Benzidine Positive Cells (%) ([3]; HMBA + chelator 20 μM): 16%
- Cells/ml (×10^4) ([3]; HMBA + chelator 20 μM): 47 ×10^4
- Average Intracellular ppb Cu ([4]; 20 μM chelator): 31.5 ppb
- Average Intracellular ppb Cu ([4]; 100 μM chelator): 24.1 ppb
- Average Intracellular ppb Cu ([4]; 500 μM chelator): 17.1 ppb
- activity at 20 µM ([4]; Homo sapiens, HL-60, 20 μM chelator, read-out: Average Intracellular Cu (% of control)): 64%
- activity at 100 µM ([4]; Homo sapiens, HL-60, 100 μM chelator, read-out: Average Intracellular Cu (% of control)): 49%
- activity at 500 µM ([4]; Homo sapiens, HL-60, 500 μM chelator, read-out: Average Intracellular Cu (% of control)): 35%
